# Measurements from ChEMBL document CHEMBL2390858, “Design, synthesis and anti-tuberculosis activity of 1-adamantyl-3-heteroaryl ureas with improved in vitro pharmacokinetic properties” (Bioorg Med Chem, 2013).
# System: Enterococcus faecalis
# Test: microbe, parasite or virus in culture
# Conditions: not given
row,Compound,MIC [mg/L]
1,O=C(Nc1ncco1)NC12CC3CC(CC(C3)C1)C2,> 200
2,O=C(Nc1nnc(C2CCC2)o1)NC1C2CC3CC(C2)CC1C3 (configuration not stated),> 200
3,CC(C)c1nnc(NC(=O)NC23CC4CC(CC(C4)C2)C3)o1,> 200
4,Cc1csc(NC(=O)NC23CC4CC(CC(C4)C2)C3)n1,> 200

# System: Burkholderia cepacia
# Test: microbe, parasite or virus in culture
# Conditions: not given
row,Compound,MIC [mg/L]
1,O=C(Nc1ncco1)NC12CC3CC(CC(C3)C1)C2,> 200
2,O=C(Nc1nnc(C2CCC2)o1)NC1C2CC3CC(C2)CC1C3 (configuration not stated),50
3,CC(C)c1nnc(NC(=O)NC23CC4CC(CC(C4)C2)C3)o1,> 200
4,Cc1csc(NC(=O)NC23CC4CC(CC(C4)C2)C3)n1,> 200

# System: Streptococcus pyogenes
# Test: microbe, parasite or virus in culture
# Conditions: not given
row,Compound,MIC [mg/L]
1,O=C(Nc1ncco1)NC12CC3CC(CC(C3)C1)C2,> 200
2,O=C(Nc1nnc(C2CCC2)o1)NC1C2CC3CC(C2)CC1C3 (configuration not stated),100
3,CC(C)c1nnc(NC(=O)NC23CC4CC(CC(C4)C2)C3)o1,> 200
4,Cc1csc(NC(=O)NC23CC4CC(CC(C4)C2)C3)n1,> 200

# System: Escherichia coli
# Test: microbe, parasite or virus in culture
# Conditions: K-12
row,Compound,MIC [mg/L]
1,O=C(Nc1ncco1)NC12CC3CC(CC(C3)C1)C2,> 200
2,O=C(Nc1nnc(C2CCC2)o1)NC1C2CC3CC(C2)CC1C3 (configuration not stated),> 200
3,CC(C)c1nnc(NC(=O)NC23CC4CC(CC(C4)C2)C3)o1,> 200
4,Cc1csc(NC(=O)NC23CC4CC(CC(C4)C2)C3)n1,> 200

# System: Pseudomonas aeruginosa
# Test: microbe, parasite or virus in culture
# Conditions: not given
row,Compound,MIC [mg/L]
1,O=C(Nc1ncco1)NC12CC3CC(CC(C3)C1)C2,> 200
2,O=C(Nc1nnc(C2CCC2)o1)NC1C2CC3CC(C2)CC1C3 (configuration not stated),> 200
3,CC(C)c1nnc(NC(=O)NC23CC4CC(CC(C4)C2)C3)o1,> 200
4,Cc1csc(NC(=O)NC23CC4CC(CC(C4)C2)C3)n1,> 200

# System: Bacillus anthracis
# Test: microbe, parasite or virus in culture
# Conditions: Sterne
row,Compound,MIC [mg/L]
1,O=C(Nc1ncco1)NC12CC3CC(CC(C3)C1)C2,> 200
2,O=C(Nc1nnc(C2CCC2)o1)NC1C2CC3CC(C2)CC1C3 (configuration not stated),25
3,CC(C)c1nnc(NC(=O)NC23CC4CC(CC(C4)C2)C3)o1,> 200
4,Cc1csc(NC(=O)NC23CC4CC(CC(C4)C2)C3)n1,> 200

# System: Staphylococcus aureus
# Test: microbe, parasite or virus in culture
# Conditions: NRS70
row,Compound,MIC [mg/L]
1,O=C(Nc1ncco1)NC12CC3CC(CC(C3)C1)C2,> 200
2,O=C(Nc1nnc(C2CCC2)o1)NC1C2CC3CC(C2)CC1C3 (configuration not stated),> 200
3,CC(C)c1nnc(NC(=O)NC23CC4CC(CC(C4)C2)C3)o1,> 200
4,Cc1csc(NC(=O)NC23CC4CC(CC(C4)C2)C3)n1,100

# System: Streptococcus pneumoniae
# Test: microbe, parasite or virus in culture
# Conditions: not given
row,Compound,MIC [mg/L]
1,O=C(Nc1ncco1)NC12CC3CC(CC(C3)C1)C2,> 200
2,O=C(Nc1nnc(C2CCC2)o1)NC1C2CC3CC(C2)CC1C3 (configuration not stated),100
3,CC(C)c1nnc(NC(=O)NC23CC4CC(CC(C4)C2)C3)o1,> 200
4,Cc1csc(NC(=O)NC23CC4CC(CC(C4)C2)C3)n1,25

# System: not listed separately
# Test: Metabolic stability in CD-1 mouse liver microsomes assessed as compound remaining after 90 mins in presence of NADPH
# Assay type: ADME, Microsome
# Conditions: read-out: Stability
row,Compound,remaining at […] [%]
1,O=C(Nc1nnc(C2CCC2)o1)NC1C2CC3CC(C2)CC1C3 (configuration not stated),> 30

# System: Vero
# Test: cells
# Conditions: Chlorocebus sabaeus, 72 h
row,Compound,IC50 [mg/L]
1,O=C(Nc1ncco1)NC12CC3CC(CC(C3)C1)C2,22
2,O=C(Nc1nnc(C2CCC2)o1)NC1C2CC3CC(C2)CC1C3 (configuration not stated),36
3,CC(C)c1nnc(NC(=O)NC23CC4CC(CC(C4)C2)C3)o1,11
4,Cc1csc(NC(=O)NC23CC4CC(CC(C4)C2)C3)n1,13

# System: Staphylococcus aureus
# Test: microbe, parasite or virus in culture
# Conditions: ATCC 29213
row,Compound,MIC [mg/L]
1,O=C(Nc1ncco1)NC12CC3CC(CC(C3)C1)C2,> 200
2,O=C(Nc1nnc(C2CCC2)o1)NC1C2CC3CC(C2)CC1C3 (configuration not stated),> 200
3,CC(C)c1nnc(NC(=O)NC23CC4CC(CC(C4)C2)C3)o1,> 200
4,Cc1csc(NC(=O)NC23CC4CC(CC(C4)C2)C3)n1,50

# Target: T1, Bifunctional epoxide hydrolase 2 (Homo sapiens, UniProt P34913)
# T1 sequence (P34913 whole entry): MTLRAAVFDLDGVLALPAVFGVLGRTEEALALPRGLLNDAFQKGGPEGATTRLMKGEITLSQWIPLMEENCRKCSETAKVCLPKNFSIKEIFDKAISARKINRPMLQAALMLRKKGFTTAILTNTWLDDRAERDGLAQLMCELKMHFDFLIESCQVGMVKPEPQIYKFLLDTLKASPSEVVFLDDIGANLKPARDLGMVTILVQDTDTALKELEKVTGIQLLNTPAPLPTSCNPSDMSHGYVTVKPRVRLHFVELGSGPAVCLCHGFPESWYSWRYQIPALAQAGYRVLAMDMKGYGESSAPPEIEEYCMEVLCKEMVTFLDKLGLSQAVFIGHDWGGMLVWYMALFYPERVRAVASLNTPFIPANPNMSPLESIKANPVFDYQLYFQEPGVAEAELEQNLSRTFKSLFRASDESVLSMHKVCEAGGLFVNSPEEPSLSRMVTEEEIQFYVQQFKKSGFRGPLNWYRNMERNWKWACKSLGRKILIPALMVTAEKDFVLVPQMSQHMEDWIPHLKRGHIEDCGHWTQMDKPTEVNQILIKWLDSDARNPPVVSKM
# Test: not given
# Conditions: not given
row,Compound,IC50 [µM]
1,O=C(Nc1ncco1)NC12CC3CC(CC(C3)C1)C2,0.948
2,O=C(Nc1nnc(C2CCC2)o1)NC1C2CC3CC(C2)CC1C3 (configuration not stated),0.382
3,CC(C)c1nnc(NC(=O)NC23CC4CC(CC(C4)C2)C3)o1,0.557
4,Cc1csc(NC(=O)NC23CC4CC(CC(C4)C2)C3)n1,0.485

# System: Klebsiella pneumoniae
# Test: microbe, parasite or virus in culture
# Conditions: not given
row,Compound,MIC [mg/L]
1,O=C(Nc1ncco1)NC12CC3CC(CC(C3)C1)C2,> 200
2,O=C(Nc1nnc(C2CCC2)o1)NC1C2CC3CC(C2)CC1C3 (configuration not stated),> 200
3,CC(C)c1nnc(NC(=O)NC23CC4CC(CC(C4)C2)C3)o1,> 200
4,Cc1csc(NC(=O)NC23CC4CC(CC(C4)C2)C3)n1,> 200

# System: Plasma
# Test: not given
# Conditions: human, 4 h, 10 µM
row,Compound,PPB [%]
1,CC(C)c1nnc(NC(=O)NC23CC4CC(CC(C4)C2)C3)o1,99.3

# System: Proteus mirabilis
# Test: microbe, parasite or virus in culture
# Conditions: not given
row,Compound,MIC [mg/L]
1,O=C(Nc1ncco1)NC12CC3CC(CC(C3)C1)C2,> 200
2,O=C(Nc1nnc(C2CCC2)o1)NC1C2CC3CC(C2)CC1C3 (configuration not stated),> 200
3,CC(C)c1nnc(NC(=O)NC23CC4CC(CC(C4)C2)C3)o1,> 200
4,Cc1csc(NC(=O)NC23CC4CC(CC(C4)C2)C3)n1,> 200

# System: Bacillus subtilis
# Test: microbe, parasite or virus in culture
# Conditions: not given
row,Compound,MIC [mg/L]
1,O=C(Nc1ncco1)NC12CC3CC(CC(C3)C1)C2,> 200
2,O=C(Nc1nnc(C2CCC2)o1)NC1C2CC3CC(C2)CC1C3 (configuration not stated),50
3,CC(C)c1nnc(NC(=O)NC23CC4CC(CC(C4)C2)C3)o1,> 200
4,Cc1csc(NC(=O)NC23CC4CC(CC(C4)C2)C3)n1,> 200

# System: not given
# Test: not given
# Conditions: buffer, 18 h, pH 7.4
row,Compound,solubility [µg/mL]
1,O=C(Nc1ncco1)NC12CC3CC(CC(C3)C1)C2,4.4
2,CC(C)c1nnc(NC(=O)NC23CC4CC(CC(C4)C2)C3)o1,9.54

# System: Acinetobacter
# Test: microbe, parasite or virus in culture
# Conditions: not given
row,Compound,MIC [mg/L]
1,O=C(Nc1ncco1)NC12CC3CC(CC(C3)C1)C2,> 200
2,O=C(Nc1nnc(C2CCC2)o1)NC1C2CC3CC(C2)CC1C3 (configuration not stated),> 200
3,CC(C)c1nnc(NC(=O)NC23CC4CC(CC(C4)C2)C3)o1,> 200
4,Cc1csc(NC(=O)NC23CC4CC(CC(C4)C2)C3)n1,> 200

# System: Mycobacterium tuberculosis
# Test: microbe, parasite or virus in culture
# Conditions: H37Rv, 168 h
row,Compound,MIC [mg/L]
1,O=C(Nc1ncco1)NC12CC3CC(CC(C3)C1)C2,6.25
2,O=C(Nc1nnc(C2CCC2)o1)NC1C2CC3CC(C2)CC1C3 (configuration not stated),0.78
3,CC(C)c1nnc(NC(=O)NC23CC4CC(CC(C4)C2)C3)o1,1.56
4,Cc1csc(NC(=O)NC23CC4CC(CC(C4)C2)C3)n1,1.56

# System: Proteus vulgaris
# Test: microbe, parasite or virus in culture
# Conditions: not given
row,Compound,MIC [mg/L]
1,O=C(Nc1ncco1)NC12CC3CC(CC(C3)C1)C2,> 200
2,O=C(Nc1nnc(C2CCC2)o1)NC1C2CC3CC(C2)CC1C3 (configuration not stated),> 200
3,CC(C)c1nnc(NC(=O)NC23CC4CC(CC(C4)C2)C3)o1,> 200
4,Cc1csc(NC(=O)NC23CC4CC(CC(C4)C2)C3)n1,> 200
